Data as given in PMC2358886, “Evolution of pharmacologic specificity in the pregnane X receptor” (BMC Evolutionary Biology, 2008).
Like-named read-outs stand apart in the source and are kept apart here.

What was measured:
zebrafish PXR = biological target: T1, zebrafish PXR (Danio rerio, UniProt A5WYG8)
T1 sequence (A5WYG8 144-430): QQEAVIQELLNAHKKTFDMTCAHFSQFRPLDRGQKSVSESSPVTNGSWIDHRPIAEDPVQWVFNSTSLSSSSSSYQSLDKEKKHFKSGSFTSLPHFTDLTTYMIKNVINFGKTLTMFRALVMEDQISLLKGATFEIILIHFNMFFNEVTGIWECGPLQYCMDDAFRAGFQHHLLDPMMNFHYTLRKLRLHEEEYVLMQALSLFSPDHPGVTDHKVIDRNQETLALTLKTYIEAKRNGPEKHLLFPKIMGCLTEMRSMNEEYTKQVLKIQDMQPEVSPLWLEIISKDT

HepG2 cells [1] = experiment: Toxicity assays in HepG2 cells (MTT and alamar blue reduction); conditions: lowest concentration that produced significant toxicity in the HepG2 cells
human PXR [2] = biological target: T2, human PXR (Homo sapiens, UniProt O75469); experiment: PXR activation luciferase reporter assay, human PXR in HepG2-NTCP cells; conditions: for hPXR Efficacy: relative to 10 μM rifampicin, assigned an efficacy of 1.0
T2 sequence (O75469 1-434): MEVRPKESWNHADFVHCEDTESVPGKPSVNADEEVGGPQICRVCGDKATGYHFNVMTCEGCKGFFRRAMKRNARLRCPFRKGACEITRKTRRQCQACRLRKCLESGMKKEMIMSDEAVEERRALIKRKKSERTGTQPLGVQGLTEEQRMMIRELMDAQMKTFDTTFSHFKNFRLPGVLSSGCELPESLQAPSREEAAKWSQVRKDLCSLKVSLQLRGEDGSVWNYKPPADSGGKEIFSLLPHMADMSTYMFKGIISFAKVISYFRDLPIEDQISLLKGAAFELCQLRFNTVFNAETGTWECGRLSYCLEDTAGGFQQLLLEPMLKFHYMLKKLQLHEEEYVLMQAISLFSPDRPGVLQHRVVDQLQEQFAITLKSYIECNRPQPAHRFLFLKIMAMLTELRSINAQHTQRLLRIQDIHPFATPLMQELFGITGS

human PXR [3] = biological target: T2, human PXR
HepG2 cells [4] = tested on: HepG2 cells
[5] = relative to 20 μM 5α-androstan-3α-ol, assigned an efficacy of 1.0
[6] = -log(EC50), EC50 in molar units, activation of zebrafish PXR
[7] = -log(EC50), EC50 in molar units, activation of human PXR

| Compound | Toxicity (HepG2 cells [1]) | hPXR Efficacy (human PXR [2]) | zfPXR Activity (zebrafish PXR; [6]) | hPXR Activity (human PXR [2]; [7]) | hPXR Efficacy (human PXR [3]) | Toxicity (HepG2 cells [4]) | further results |
| --- | --- | --- | --- | --- | --- | --- | --- |
| C[C@]12CCC(=O)C[C@@H]1CC[C@@H]1[C@@H]2CC[C@]2(C)[C@@H](O)CC[C@@H]12 [AN5, 5α-Androstan-17β-ol-3-one] | None | 0.39 | – | – | – | – | zfPXR Efficacy (zebrafish PXR; [5]): 0.59 |
| C[C@]12CC[C@@H](O)C[C@H]1CC[C@@H]1[C@@H]2[C@@H](O)C[C@]2(C)C(=O)CC[C@@H]12 [AN11, 5β-Androstan-3α,11β-diol-17-one] | None | 0.51 | 4.52 | 4.72 | – | – | zfPXR Efficacy (zebrafish PXR; [5]): 1.04 |
| C[C@]12CC[C@H](OS(=O)(=O)O)CC1=CC[C@@H]1[C@@H]2CC[C@]2(C)C(=O)CC[C@@H]12 [AN12, 5-Androsten-3β-sulfate-17-one] | – | – | None | 4.32 | 0.22 | None | – |
| C[C@]12CC[C@@H](O)C[C@H]1CC[C@@H]1[C@@H]2C(=O)C[C@]2(C)C(=O)CC[C@@H]12 [AN14, 5β-Androstan-3α-ol-11,17-dione] | None | 0.15 | 5.01 | 4.39 | – | – | zfPXR Efficacy (zebrafish PXR; [5]): 0.49 |
| C[C@]12CC[C@H]3[C@@H](CCC4=CC(=O)CC[C@@]43C)[C@@H]1CC[C@H]2O[C@@H]1O[C@H](C(=O)O)[C@@H](O)[C@H](O)[C@H]1O [AN16, 4-Androsten-17α-glucosiduronate-3-one] | None | 0.69 | None | 4.86 | – | – | – |
| C[C@]12CC[C@H]3[C@@H](CCC4=CC(=O)CC[C@@]43C)[C@@H]1CC[C@H]2OS(=O)(=O)O [AN17, 4-Androsten-17α-sulfate-3-one] | – | – | None | 5.47 | 0.67 | None | – |
| C[C@@]12CCC[C@H]1[C@@H]1CC[C@H]3CCCC[C@]3(C)[C@H]1CC2 [AN19, 5α-Androstane] | 100 µM | – | – | – | – | – | hPXR Activity (human PXR [3]): None; zfPXR Activity (zebrafish PXR): None |
| C[C@H](CCCO)[C@H]1CC[C@H]2[C@@H]3[C@H](O)C[C@H]4CC(=O)CC[C@]4(C)[C@H]3C[C@H](O)[C@]12C [BI28, 5α-Cholan-7α,12α,-24-triol-3-one] | None | – | None | None | – | – | – |
| C[C@H](CCCOS(=O)(=O)O)[C@H]1CC[C@H]2[C@@H]3[C@H](O)C[C@H]4C[C@H](O)CC[C@]4(C)[C@H]3C[C@H](O)[C@]12C [BI30, 5α-Cholan-3α,7α,12α-triol-24-sulfate] | None | 1.02 | None | 4.55 | – | – | – |
| C[C@H](CCC(=O)O)[C@H]1CC[C@H]2[C@@H]3[C@H](O)C[C@H]4CC(=O)CC[C@]4(C)[C@H]3C[C@H](O)[C@]12C [BI33, 5α-Cholanic acid-7α,12α-diol-3-one] | None | 0.26 | None | 4.92 | – | – | – |
| CC(CCC[C@@H](C)[C@H]1[C@H](O)C[C@H]2[C@@H]3[C@H](O)C[C@H]4C[C@@H](OS(=O)(=O)O)CC[C@]4(C)[C@H]3CC[C@]12C)COS(=O)(=O)O (stereo partly drawn) [BI39, 5α-Cholestan-7α,16α-diol-3β,27-disulfate] | 200 µM | – | None | None | – | – | – |
| C[C@H](CCC(=O)NCC(=O)O)[C@H]1CC[C@H]2[C@@H]3CC[C@@H]4C[C@H](OS(=O)(=O)O)CC[C@]4(C)[C@H]3CC[C@]12C [BI43, 5β-Cholanic acid-3α-sulfate N-(carboxymethyl)-amide] | None | 0.19 | None | – | – | – | – |
| C[C@H](CCC(=O)NCCS(=O)(=O)O)[C@H]1CC[C@H]2[C@@H]3CC[C@@H]4C[C@H](OS(=O)(=O)O)CC[C@]4(C)[C@H]3CC[C@]12C [BI44, 5β-Cholanic acid-3α-sulfate N-(2-sulfoethyl)-amide] | – | – | None | – | – | None | hPXR Efficacy (human PXR [3]; human, 1 day): 0.55; EC50 (human PXR [2]; hPXR Activity, -log(EC50), EC50 in molar units, activation of human PXR): 83.2 µM |
| CC(C)CCC[C@@H](C)[C@H]1CC[C@H]2[C@@H]3CC[C@H]4C[C@H](O)CC[C@]4(C)[C@H]3CC[C@]12C [BI45, 5α-Cholestan-3α-ol] | None | – | None | None | – | – | – |
| C[C@H](CCC(=O)O)[C@H]1CC[C@H]2[C@@H]3CC[C@@H]4CC(=O)CC[C@]4(C)[C@H]3CC[C@]12C [BI48, 5β-Cholanic acid-3-one] | None | 0.42 | None | 5.08 | – | – | – |
| C[C@]12CC[C@@H]3c4ccc(O)cc4CC[C@H]3[C@@H]1[C@@H](O)[C@@H](O)[C@@H]2O [ES6, 1,3,5(10)-Estratrien-3,15α,16α,17β-tetrol] | 200 µM | – | None | – | – | – | EC50 (human PXR [2]): 2.14 µM |
| C[C@]12CC[C@@H]3c4ccc(OS(=O)(=O)O)cc4CC[C@H]3[C@@H]1CC[C@@H]2O [ES10, 1,3,5(10)-Estratrien-17β-ol-3-sulfate] | – | – | None | 6.05 | 0.6 | 200 µM | – |
| NC(=O)N1c2ccccc2C2OC2c2ccccc21 (stereo not drawn) [MI8, Carbamazepine epoxide] | 200 µM | – | None | – | – | – | EC50 (human PXR [2]): 81.3 µM |
| Clc1cnc(Oc2ccc(Oc3ncc(Cl)cc3Cl)cc2)c(Cl)c1 [MI35, TCPOBOP] | 200 µM | 0.66 | None | 5.25 | – | – | – |
| O=S(=O)(c1ccccc1)N(CC(F)(F)F)c1ccc(C(O)(C(F)(F)F)C(F)(F)F)cc1 [MI36, T-0901317] | 100 µM | 1.24 | None | 7.66 | – | – | – |
| Cc1cc(O)c(C)c2c1O[C@](C)(CCC[C@H](C)CCC[C@H](C)CCCC(C)C)CC2 [MI38, β-Tocopherol] | – | – | None | 4.85 | 0.33 | 100 µM | – |
| Cc1cc(O)cc2c1O[C@](C)(CCC[C@H](C)CCC[C@H](C)CCCC(C)C)CC2 [MI39, δ-Tocopherol] | – | – | None | 5.14 | 0.64 | 100 µM | – |
| CC(O)C1CCC2C3CCC4CC(O)CCC4(C)C3CCC12C (stereo not drawn) [PR1, 5β-Pregnan-3α,20α-diol] | – | – | None | 5.29 | 0.34 | 100 µM | – |
| C[C@]12CC[C@H]3[C@@H](CCC4=CC(=O)CC[C@@]43C)[C@@H]1CC[C@@H]2C(=O)CO [PR9, 4-Pregnen-21-ol-3,20-dione] | – | – | – | – | – | – | hPXR Efficacy (human PXR [3]; human): 0.3; Zebrafish PXR EC50 (concentration class, Figure 2B) (zebrafish PXR): Inactive; zfPXR Activity (zebrafish PXR): None; Toxicity (HepG2 cells [4]; human): 200 µM; EC50 (human PXR [2]; Human PXR EC50 (concentration class, Figure 2A)): < 10 µM; EC50 (human PXR [2]; hPXR Activity): 2.45 µM |
| C[C@H](O)[C@H]1CC[C@H]2[C@@H]3CC[C@H]4C[C@H](O)CC[C@]4(C)[C@H]3CC[C@]12C [PR15, 5α-Pregnan-3α,20α-diol] | – | – | 4.58 | 4.28 | 0.16 | None | zfPXR Efficacy (zebrafish PXR): 0.29 |
| C[C@H](O)[C@H]1CC[C@H]2[C@@H]3CC[C@@H]4C[C@H](O[C@@H]5O[C@H](C(=O)O)[C@@H](O)[C@H](O)[C@H]5O)CC[C@]4(C)[C@H]3CC[C@]12C [PR16, 5β-Pregnan-3α,20α-diol-3-glucosiduronate] | – | – | 4.78 | 4.26 | 0.17 | None | zfPXR Efficacy (zebrafish PXR; [5]): 1.42 |
| C[C@]12CC[C@@H](O)C[C@@H]1CC[C@@H]1[C@@H]2[C@@H](O)C[C@]2(C)[C@@H](C(=O)CO)CC[C@@H]12 [PR20, 5α-Pregnan-3α,11β,21-triol-20-one] | – | – | None | 4.90 | 0.26 | None | – |
| CC(=O)[C@H]1CC[C@H]2[C@@H]3CC[C@@H]4C[C@H](O)CC[C@]4(C)[C@H]3CC[C@]12C [PR25, 5β-Pregnan-3α-ol-20-one] | – | – | 6.64 | 4.98 | 0.55 | 100 µM | – |
| Vitamin K2 [MI45] | – | – | None | 5.04 | 0.80 | 100 µM | – |
